{"source": "patent US9598433B2", "about": "“Hepatitis C virus inhibitors” (BRISTOL-MYERS SQUIBB COMPANY, priority 2012, dated 2017)", "key": {"[1]": {"conditions": "rcm bond, 15-membered ring, Hoveyda-Grubbs II (5 mol%), DCE, 80.0 °C"}, "[2]": {"conditions": "from C=CCC[C@@H](C)O[C@@H](C)C(NC(=O)OC(C)(C)C)C(=O)N1C[C@H](Oc2nccc3cc(OC)ccc23)C[C@H]1C(=O)N[C@]1(C(=O)NS(=O)(=O)C2(C)CC2)C[C@H]1C=C; rcm bond; 15-membered ring; Hoveyda-Grubbs II (5 mol%); DCE; 7.2 mM; 80.0 °C; 2.0 h"}, "[3]": {"test_system": "HCV genotype 1a (H77 strain) replicon in HUH-7 cells", "test": "HCV replicon luciferase reporter assay, genotype 1a", "format": "cell-based", "conditions": "Hepatitis C virus, 72 h, genotype 1a replicon, 3 days incubation, read-out: LE_1a (EC50, range)", "summary_of_the_method": "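Stable HUH-7 line carrying luciferase-reporter genotype 1a (H77) replicon with adaptive NS3 P1496L and NS5A S2204I mutations; 3.0×10^3 cells/well in 4% FCS, 0.5% DMSO, twenty-point 3-fold titration, 3 days at 37 °C. Renilla luminescence with 7.5 μM EnduRen; EC50 by four-parameter logistic fit; CC50 by multiplexed Cell Titer-Blue.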"}, "[4]": {"test_system": "HCV genotype 1b (Con1) replicon in HUH-7 cells", "test": "HCV replicon luciferase reporter assay, genotype 1b", "format": "cell-based", "conditions": "Hepatitis C virus, 72 h, genotype 1b replicon, 3 days incubation, read-out: LE_1b (EC50, range)", "summary_of_the_method": "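Replication was read as Renilla luciferase signal, using 7.5 μM EnduRen substrate with a 2-h incubation at 37 °C. The signal came from a HUH-7 line constitutively expressing a luciferase-tagged 1b (Con1) replicon carrying S1179I.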"}}, "note": "Read-outs that look alike come from different tables or passages of the source.", "data": [{"smiles": "CC[C@@H]1O[C@H](C)CC/C=C\\[C@@H]2C[C@@]2(C(=O)NS(=O)(=O)C2CC2)NC(=O)[C@@H]2C[C@@H](O)CN2C(=O)[C@H]1NC(=O)OC(C)(C)C", "values": [{"measurement": "ring closure, isolated yield", "setting": "[1]; from C=CCC[C@@H](C)O[C@@H](CC)[C@H](NC(=O)OC(C)(C)C)C(=O)N1C[C@H](O)C[C@H]1C(=O)N[C@]1(C(=O)NS(=O)(=O)C2CC2)C[C@H]1C=C, 9.8 mM, 4.0 h", "value": 54, "unit": "%"}]}, {"smiles": "CC[C@@H]1O[C@H](C)CC/C=C\\[C@@H]2C[C@@]2(C(=O)NS(=O)(=O)C2(CF)CC2)NC(=O)[C@@H]2C[C@@H](O)CN2C(=O)[C@H]1NC(=O)OC(C)(C)C", "values": [{"measurement": "ring closure, isolated yield", "setting": "[1]; from C=CCC[C@@H](C)O[C@@H](CC)[C@H](NC(=O)OC(C)(C)C)C(=O)N1C[C@H](O)C[C@H]1C(=O)N[C@]1(C(=O)NS(=O)(=O)C2(CF)CC2)C[C@H]1C=C, 9.2 mM, 16.0 h", "value": 22, "unit": "%"}]}, {"smiles": "COc1ccc2c(O[C@@H]3C[C@H]4C(=O)N[C@]5(C(=O)NS(=O)(=O)C6(C)CC6)C[C@H]5/C=C\\CC[C@@H](C)O[C@@H](C)[C@H](NC(=O)OC(C)(C)C)C(=O)N4C3)nccc2c1", "note": "[Compound 2001, tert-butyl ((2R,6S,7S,9R,13aS,14aR,16aS,Z)-2-((6-methoxyisoquinolin-1-yl)oxy)-7,9-dimethyl-14a-(((1-methylcyclopropyl)sulfonyl)carbamoyl)-5,16-dioxo-2,3,5,6,7,9,10,11,13a,14,14a,15,16,16a-tetradecahydro-1H-cyclopropa[i]pyrrolo[1,2-e][1,5,8]oxadiazacyclopentadecin-6-yl)carbamate]", "values": [{"measurement": "ring closure, yield after HPLC", "setting": "[2]", "value": 30, "unit": "%"}, {"measurement": "EC50", "setting": "[3]", "value": "1.01 to 5", "unit": "nM"}, {"measurement": "EC50", "setting": "[4]", "value": "1.01 to 5", "unit": "nM"}]}, {"smiles": "C[C@@H]1CC/C=C\\[C@@H]2C[C@@]2(C(=O)NS(=O)(=O)C2(C)CC2)NC(=O)[C@@H]2C[C@@H](O)CN2C(=O)[C@@H](NC(=O)OC(C)(C)C)[C@H](C)O1", "values": [{"measurement": "ring closure, isolated yield", "setting": "[1]; from C=CCC[C@@H](C)O[C@@H](C)[C@H](NC(=O)OC(C)(C)C)C(=O)N1C[C@H](O)C[C@H]1C(=O)N[C@]1(C(=O)NS(=O)(=O)C2(C)CC2)C[C@H]1C=C, 8.0 mM, 2.0 h", "value": 24, "unit": "%"}]}, {"smiles": "CC[C@@H]1O[C@H](C)CCC=C[C@@H]2C[C@@]2(C(=O)NS(=O)(=O)C2(C)CC2)NC(=O)[C@@H]2C[C@@H](O)CN2C(=O)[C@H]1NC(=O)OC(C)(C)C", "values": [{"measurement": "ring closure, isolated yield", "setting": "[1]; from C=CCC[C@@H](C)O[C@@H](CC)[C@H](NC(=O)OC(C)(C)C)C(=O)N1C[C@H](O)C[C@H]1C(=O)N[C@]1(C(=O)NS(=O)(=O)C2(C)CC2)C[C@H]1C=C, 8.7 mM, 74.0 h, 5 steps", "value": 10, "unit": "%"}]}, {"smiles": "CC[C@@H]1OCCC/C=C\\[C@@H]2C[C@@]2(C(=O)NS(=O)(=O)C2(C)CC2)NC(=O)[C@@H]2C[C@@H](O)CN2C(=O)[C@H]1NC(=O)OC(C)(C)C", "values": [{"measurement": "ring closure, isolated yield", "setting": "[1]; from C=CCCCO[C@@H](CC)[C@H](NC(=O)OC(C)(C)C)C(=O)N1C[C@H](O)C[C@H]1C(=O)N[C@]1(C(=O)NS(=O)(=O)C2(C)CC2)C[C@H]1C=C, 7.5 mM, 74.0 h", "value": 22, "unit": "%"}]}, {"smiles": "COc1ccc2c(O[C@@H]3C[C@H]4C(=O)N[C@]5(C(=O)NS(=O)(=O)C6(C)CC6)C[C@H]5/C=C\\CC[C@@H](C)O[C@@H](C)[C@H](NC(=O)OC(C)(C)C(F)(F)F)C(=O)N4C3)nccc2c1", "note": "[Compound 2002, 1,1,1-trifluoro-2-methylpropan-2-yl ((2R,6S,7S,9R,13aS,14aR,16aS,Z)-2-((6-methoxyisoquinolin-1-yl)oxy)-7,9-dimethyl-14a-(((1-methylcyclopropyl)sulfonyl)carbamoyl)-5,16-dioxo-2,3,5,6,7,9,10,11,13a,14,14a,15,16,16a-tetradecahydro-1H-cyclopropa[i]pyrrolo[1,2-e][1,5,8]oxadiazacyclopentadecin-6-yl)carbamate]", "values": [{"measurement": "EC50", "setting": "[3]", "value": "0.51 to 1", "unit": "nM"}, {"measurement": "EC50", "setting": "[4]", "value": "0.1 to 0.5", "unit": "nM"}]}]}
